Data as given in patent EP0364819A2, “LHRH analogs” (The Administrators of The Tulane Educational Fund, priority 1988, dated 1990).

What was measured:
[1] = target: T1, membrane receptors of rat pituitary (Rattus norvegicus, UniProt P30969); experiment: Receptor binding to rat pituitary membranes with 125I-labeled [D-Trp6]LHRH; settings: high affinity binding sites, pituitary of male rats, ¹²⁵l-labeled [D-Trp⁶]LHRH
T1 construct: membrane receptors of rat pituitary; from tissue; host or cells: rat pituitary membranes
T1 sequence (P30969 1-327): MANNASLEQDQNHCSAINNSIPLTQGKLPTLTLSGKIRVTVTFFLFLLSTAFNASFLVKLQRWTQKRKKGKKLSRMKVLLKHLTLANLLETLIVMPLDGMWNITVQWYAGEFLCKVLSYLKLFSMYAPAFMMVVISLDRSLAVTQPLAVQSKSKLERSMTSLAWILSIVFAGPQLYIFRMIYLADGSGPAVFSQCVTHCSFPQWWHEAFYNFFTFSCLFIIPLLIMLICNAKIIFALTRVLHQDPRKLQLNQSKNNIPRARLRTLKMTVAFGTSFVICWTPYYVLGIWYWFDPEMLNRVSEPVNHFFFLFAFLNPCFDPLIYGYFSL
Method: (§1) This is determined by using labelled LHRH and [D-Trp⁶]LHRH. The assay is carried out similarly to that described by T. Kadar et al., Proc. Natl. Acad. Sci. USA, 85, 890-894 (1988).
(§2) Table 2 presents the antiovulatory activity of the claimed compounds having LHRH-inhibiting properties. The inhibitory action was determined in vivo, in 4-day cycling rats as described [A. Corbin and C. W. Beattie, Endocr. Res. Commun., 2, 1-23 (1975)]. Affinities of the claimed compounds to membrane receptors of rat pituitary and human breast cancer cells are also given in Tables 1 and 2 as determined by using [[…],D-Trp⁶]LHRH.

[2] = target: T2, membrane receptors of human breast cancer cells (Homo sapiens, UniProt P30968); experiment: Receptor binding to human breast cancer cell membranes with 125I-labeled [D-Trp6]LHRH; settings: high affinity binding sites, ¹²⁵l-labeled [D-Trp⁶]LHRH
T2 construct: human prostate and breast cancer cell membranes; endogenous in cells
T2 sequence (P30968 1-328): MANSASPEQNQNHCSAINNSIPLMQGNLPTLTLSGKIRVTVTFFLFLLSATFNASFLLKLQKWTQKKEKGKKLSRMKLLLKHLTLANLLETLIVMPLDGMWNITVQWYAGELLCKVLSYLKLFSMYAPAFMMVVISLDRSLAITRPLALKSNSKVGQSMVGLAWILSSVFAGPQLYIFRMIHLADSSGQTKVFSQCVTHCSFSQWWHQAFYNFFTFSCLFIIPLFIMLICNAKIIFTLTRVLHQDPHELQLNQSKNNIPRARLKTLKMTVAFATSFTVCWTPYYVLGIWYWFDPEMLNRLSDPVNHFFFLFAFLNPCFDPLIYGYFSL
Method: (c)Affinity for peptides to human prostate and breast cancer cell membranes.
as §1, §2

4-day cycling rats = experiment: In vivo antiovulatory activity in 4-day cycling rats; settings: 4-day cyclic rats
Method: This activity of the peptides is determined in 4-day-cycling rats as described [A. Corbin and C. W.Beattie, Endocr. Res. Commun. 2, 1-23(1975)].
as §2

[3] = system: dispersed rat pituitary cell superfusion system; experiment: LH release in dispersed rat pituitary cell superfusion system (LHRH agonistic activity); type: cell-based; settings: peptide infused for 3 minutes at various concentration; LH released compared to that released by 3 nM LHRH
Method: The ability of compounds to influence LH release in vitro is assayed by using a superfused rat pituitary cell system [S. Vigh and A. V. Schally, Peptides, 5 Suppl.
The peptide was infused for 3 minutes at various concentration, and the amount of LH released was compared to that released by 3 nM LHRH.

[4] = Table 2, antagonistic analogues

| Binding affinity, Ka1, for membrane receptors of pituitary [1, 4] | Binding affinity, Ka1, for membrane receptors of cancer cells [2, 4] | Binding affinity, Ka1, for membrane receptors of pituitary ([1]; Table 1, agonistic analogues) | Binding affinity, Ka1, for membrane receptors of cancer cells ([2]; Table 1, agonistic analogues) | Substance | Hormonal activity* %Blockade of ovulation (4-day cycling rats; Dose 3 µg/rat) | Hormonal activity* %Blockade of ovulation (4-day cycling rats; Dose 10 µg/rat) | Hormonal activity* LH responses rel. to LHRH (= 1) [3] |
| --- | --- | --- | --- | --- | --- | --- | --- |
| 5.483 nM-¹ | 2.628 nM-¹ |  |  | Ac-D-Nal(2)-D-Phe(4Cl)-D-Pal(3)-Ser-Arg-D-Lys[(Cu⁺⁺)(POL)₂(DL-A₂pr)]-Leu-Arg-Pro-D-Ala-NH₂ [XXIV] | 50% |  |  |
| 5.250 nM-¹ | 2.436 nM-¹ |  |  | Ac-D-Nal(2)-D-Phe(4Cl)-D-Pal(3)-Ser-Arg-D-Lys[(Cu⁺⁺)(POLP)₂(DL-A₂pr)]-Leu-Arg-Pro-D-Ala-NH₂ [Example XX] | 80% |  |  |
|  | 0.192 nM-¹ |  |  | Ac-D-Nal(2)-D-Phe(4Cl)-D-Pal(3)-Ser-Arg-D-Lys[(Cu⁺⁺)(SAL)₂(A₂bu-Eac)]-Leu-Arg-Pro-D-Ala-NH₂ [XXVIII] |  |  |  |
|  | 2.152 nM-¹ |  |  | Ac-D-Nal(2)-D-Phe(4Cl)-D-Pal(3)-Ser-Arg-D-Lys[(PtCl₂)-A₂bu-Eac)]-Leu-Arg-Pro-D-Ala-NH₂ [XXVII] |  |  |  |
| 7.622 nM-¹ | 3.408 nM-¹ |  |  | Ac-D-Nal(2)-D-Phe(4Cl)-D-Trp-Ser-Arg-D-Lys[(Cu⁺⁺) (POL)₂(DL-A₂pr)]-Leu-Arg-Pro-D-Ala-NH₂ [Example XXIII] |  | 40% |  |
| 1.821 nM-¹ | 0.878 nM-¹ |  |  | Ac-D-Nal(2)D-Phe(4Cl)-D-Pal(3)-Ser-Arg-D-Lys[(Ni⁺⁺)(SAL)₂(DL-A₂pr)]-Leu-Arg-Pro-D-Ala-NH₂ [XIII] |  |  |  |
|  |  | 4.513 nM⁻¹ | 2.236 nM⁻¹ | pGlu-His-Trp-Ser-Tyr-D-Lys [(Ni⁺⁺)(CISAL)₂(D-A₂pr)]-Leu-Arg-Pro-Gly-NH₂ [Example X] |  |  | 4 |
|  |  | 8.625 nM⁻¹ | 3.995 nM⁻¹ | pGlu-His-Trp-Ser-Tyr-D-Lys[(Cu²²)(CISAL)₂(DL-A₂pr)]-Leu-Arg-Pro-Gly-NH₂ [Example IX] |  |  | 10 |
|  |  | 1.770 nM⁻¹ | 0.536 nM⁻¹ | pGlu-His-Trp-Ser-Tyr-D-Lys[(Cu⁺⁺)(FUR)₂(DL-A₂pr)]-Leu-Arg-Pro-Gly-NH₂ [XVII] |  |  | 10 |
|  |  | 10.989 nM⁻¹ | 5.096 nM⁻¹ | pGlu-His-Trp-Ser-Tyr-D-Lys[(Cu⁺⁺)(PEN) ₂(A₂pr)]-Leu-Arg-Pro-Gly-NH₂ [Example XXI] |  |  | 10.6 |
